Laboratory results taken from US20240415819A1, “MACROCYCLIC COMPOUNDS AS PROTEASOME SUBUNIT BETA TYPE-5 INHIBITORS” (Lead Discovery Center GmbH, priority 2021, published 2024).

Legend:
[1] = target: T1, β5 subunit of the human constitutive proteasome (CPS) (Homo sapiens, UniProt P28074); assay: β5 inhibition assay, human constitutive proteasome (Suc-LLVY-AMC); assay type: biochemical; settings: IC50 class, Suc-LLVY-AMC substrate
T1 construct: purchased Boston Biochem E-360
Protocol: The enzymatic activity of the β5 subunit of the human constitutive proteasome (CPS) is analyzed. In another assay, which differs from the assay of the human constitutive proteasome only in using the human immunoproteasome (IPS) the enzymatic activity of the β5 subunit of the human immunoproteasome (IPS) is analyzed. […] Inhibition is indicated as IC50 [nM] (“-”=not measured).

[2] = tested on: HT-29 cells; assay: CellTiter-Glo luminescent cell viability assay with HT-29 cells (72h incubation); assay type: cell-based, human; settings: Homo sapiens, HT-29, HT29 cells, read-out: CTG HT29
Protocol: Cell Titer Glo Viability Assay with HT-29 Cells (72h Incubation) The CellTiter-Glo Luminescent Cell Viability Assay (Promega) is a homogeneous method of determining the number of viable cells in culture. It is based on quantification of ATP, indicating the presence of metabolically active cells. On day 1 400 HT-29 cells per well are seeded in white 384well plates (Greiner, #781080) in 25 μl cell culture medium (DMEM (PAN-Biotech #P04-03590)+10% FCS+glutamine). After incubation for 24 h at 37° C./5% CO2 compounds or DMSO are added at different concentrations by Echo Liquid Handling Technology. Cells are further incubated in humidified chambers for 72 h at 37° C. and 5% CO2. Cells treated with the compound vehicle DMSO are used as positive controls and cells treated with 10 μM Staurosporine serve as negative controls. At day 5-72h after compound addition—the CellTiter Glo Reagent is prepared according to the instructions of the kit (Promega Inc.): Reagent is mixed 1:1 with cell culture medium. Thereon, mixture and assay plates are equilibrated at room temperature for 20 min. Equal volumes of the reagent-medium-mixture is added to the volume of culture medium present in each well. The plates are mixed at […] for 2 minutes on an orbital shaker. The microplates are then incubated at room temperature for 10 minutes for stabilization of the luminescent signal. Following incubation the luminescence is recorded on a Victor microplate reader (Perkin Elmer) using a 200 ms integration time. The data is then analyzed with Excel using the XLFIT Plugin (dose response Fit 205) for IC50-determination. As quality control the Z′-factor is calculated from 16 positive and negative control values. […] Inhibition is indicated as IC50 [nM] (“-”=not measured).

[3] = target: T2, β5 subunit of the human immunoproteasome (IPS) (Homo sapiens, UniProt P28062); assay: β5 inhibition assay, human immunoproteasome (Suc-LLVY-AMC); assay type: biochemical; settings: IC50 class, Suc-LLVY-AMC substrate
T2 construct: purchased Boston Biochem E-370
Protocol: The enzymatic activity of the β5 subunit of the human constitutive proteasome (CPS) is analyzed. In another assay, which differs from the assay of the human constitutive proteasome only in using the human immunoproteasome (IPS) the enzymatic activity of the β5 subunit of the human immunoproteasome (IPS) is analyzed. Incubation of the enzyme with its fluorogenic substrate Suc-LLVY-AMC leads to liberation of the fluorescent dye AMC which can be measured with a suitable plate reader. • 100 mM HEPES pH7.5 • 50 mM NaCl • 0.02% SDS • 1 mM DTT (add fresh) • Victor X5 (Perkin Elmer) • Label: Umbeliferone (0.1s) • Excitation wavelength: 355 nm • Emission wavelength: 460 nm • 4 μl human cPS or IPS enzyme in assay buffer (final assay concentration 1 nM) or 4 μl assay buffer for negative controls • Compound addition via acoustic dispenser (Echo 520, Labcyte) • Mix and incubate @ RT for 10 min • 4 μl Suc-LLVY-AMC substrate (final assay concentration 22.6 μM) • Mix and incubate @ RT for 4 h (dark) • Stop reaction with 4 μl Bortezomib (final assay concentration 1 μM) • 15 min @ RT • Measure (Excitation 355 nm; Emission 460 nm)

[4] = tested on: A549 (human lung carcinoma cell line); assay: Glo assay of A549 cells (Table 3; ProteasomeGlo plating scheme); assay type: cell-based; settings: Homo sapiens; A549 cells; read-out: PGLo A549
Text: Inhibition is indicated as IC50 [nM] (“-”=not measured). […] • Chymotrypsin-Like Cell-Based Proteasome-GloTM Assay (Promega; […]) • Cell culture 384-well plates (Greiner BioOne; 781080) • Dispensing cassette, MultiDrop Standard tube dispensing cassette (Thermo Scientific; 24072670) • DPBS (Pan BioTech; P04-36500) • Cell culture 384-well plates (Greiner BioOne; 781080) • CPD source plate: diamond-shape plate (Labcyte; LP-0200) • Intermediate plate (Labcyte; P-05525) [table] • a. Remove the plates with cells from the incubator. • b. Take all the plates including the compound plate, intermediate plate and Staurosporine plate to the ECHO. • c. Click on “Open” in the ECHO software and select the protocol “QLI5_25ul_30 uM-Grenier”. • d. Follow the on-screen prompts and instructions once you click “Start” to insert the compound plate, intermediate plate and destination plates. • e. Change the final number of destination plates on the program. • f. Follow the on-screen prompts and instructions once you click “Start” to load the Staurosporine and destination plates. • g. Once all the compounds, DMSO and Staurosporine have been transferred, place the destination plates in a wet tissue box. • h. Place the destination plates back into the incubator and incubate at 37° C., 5% CO2 for 105 minutes. • i. Re-seal all the compound+Stauro diamond and intermediate plates and store in the dark. Chymotrypsin like ProteasomeGlo Assay • 1. Thaw the components of the ProteasomeGlo assay at room temperature including the ProteasomeGlo Buffer, the lyophilized Luciferin Detection Reagent and the Suc-LLVY-Glo Substrate. • 2. Reconstitute the Luciferin Detection Reagent in the amber coloured bottle by adding 50 ml of the ProteasomeGlo Buffer. • 3. Vortex the Suc-LLVY-Glo Substrate briefly to reconstitute the Substrate well. • 4. Spin down the Substrate and add 250 μl of the Substrate to the reconstituted Luciferin Detection Reagent from step 2. • 5. Briefly vortex the amber bottle with the mix to prepare a homogenous solution. • 6. Place the mix prepared in step 5 to sit at room temperature for 60 minutes. • 7. After 60 minutes, pipette 25 μl of the mix from step 5 into all wells with the cells. • 8. Shake the plates for 2-5 minutes to ensure the complete mixing of the ProteasomeGlo reagent with the cells. • 9. Leave the plates in the dark for 10-15 minutes. • 10. Measure the luminescence read-out using the Viktor and the protocol “Luminescence_384Well_0.2 sec”. (Note: The Protoeasome-GloTM Reagent (combined Proteasome-GloTM Substrate, Proteasome-GloTM Buffer and Luciferin Detection Reagent) can be stored at 4° C. or -20° C. for 1 month with minimal loss of activity.)

`Cc1cc2cc(c1C)CNC(=O)[C@H](CCc1ccccc1)NC(=O)CCC(=O)N1CCCC(CCO2)C1` (stereo partly drawn) [Compound 95, (9S)-5^4,5^5-dimethyl-9-phenethyl-4-oxa-7,10-diaza-1(3,1)-piperidina-5(1,3)-benzenacyclotetradecaphane-8,11,14-trione] was tested, and the IC50 [1] was less than 100 nM, the IC50 [2] was 500 to 1000 nM and the IC50 [3] was less than 100 nM. For the same compound, the IC50 [4] was 1000 to 5000 nM.

With `CC(=O)N[C@H]1CCC(=O)N2CCC2(C)COc2ccc(C)c(c2)CNC(=O)[C@H](CCc2ccccc2)NC1=O` (stereo partly drawn) [Compound 265, N-((8S,11S)-1^2,4^4-dimethyl-7,10,14-trioxo-8-phenethyl-3-oxa-6,9-diaza-1(2,1)-azetidina-4(1,3)-benzenacyclotetradecaphane-11-yl)acetamide] the IC50 [2] was 100 to 500 nM, the IC50 [3] was 100 to 500 nM and the IC50 [4] was greater than 5000 nM.

Compound `CC(=O)N[C@H]1CCCC(=O)NCCCCOc2ccc(C)c(c2)CNC(=O)[C@H](CCc2ccccc2)NC1=O` [Compound 269, N-((12S,15S)-1^4-methyl-8,13,16-trioxo-15-phenethyl-2-oxa-7,14,17-triaza-1(1,3)-benzenacyclooctadecaphane-12-yl)acetamide] has an IC50 [1] of 1000 to 5000 nM, an IC50 [2] of 1000 to 5000 nM and an IC50 [3] of less than 100 nM. For the same compound, the IC50 [4] was 1000 to 5000 nM.

`Cc1ccc2cc1CNC(=O)[C@H](CCc1ccccc1)NC(=O)[C@@H](NC(=O)c1cccc3cc(N)ncc13)CC(=O)N1CCCC(CCO2)C1` (stereo partly drawn) [Compound 319, 3-amino-N-((9S,12S)-5^4-methyl-8,11,14-trioxo-9-phenethyl-4-oxa-7,10-diaza-1(3,1)-piperidina-5(1,3)-benzenacyclotetradecaphane-12-yl)isoquinoline-8-carboxamide] gave an IC50 [1] of less than 100 nM, an IC50 [2] of less than 100 nM and an IC50 [3] of less than 100 nM.

`COC(C(=O)N[C@H]1CC(=O)N2CCCC(CCOc3ccc(C)c(c3)CNC(=O)[C@H](CCc3ccccc3)NC1=O)C2)c1ccc(NC(C)=O)cc1` (stereo partly drawn) [Compound 323, 2-(4-acetamidophenyl)-2-methoxy-N-((9S,12S)-5^4-methyl-8,11,14-trioxo-9-phenethyl-4-oxa-7,10-diaza-1(3,1)-piperidina-5(1,3)-benzenacyclotetradecaphane-12-yl)acetamide] gave an IC50 [1] of less than 100 nM, an IC50 [2] of less than 100 nM and an IC50 [3] of less than 100 nM. For the same compound, the IC50 [4] was less than 100 nM.

Compound `CCOC(C(=O)N[C@H]1CC(=O)N2CCCC(CCOc3ccc(C)c(c3)CNC(=O)[C@H](CCc3ccccc3)NC1=O)C2)c1ccc(NC(C)=O)cc1` (stereo partly drawn) [Compound 324, 2-(4-acetamidophenyl)-2-ethoxy-N-((9S,12S)-5^4-methyl-8,11,14-trioxo-9-phenethyl-4-oxa-7,10-diaza-1(3,1)-piperidina-5(1,3)-benzenacyclotetradecaphane-12-yl)acetamide] has an IC50 [1] of less than 100 nM, an IC50 [2] of less than 100 nM and an IC50 [3] of less than 100 nM. For the same compound, the IC50 [4] was less than 100 nM.

Compound `Cc1ccc2cc1CNC(=O)[C@H](CCc1ccccc1)NC(=O)[C@@H](NC(=O)OCc1ccccc1)CC(=O)N1CCC(CCO2)C1` (stereo partly drawn) [Compound 325, benzyl ((9S,12S)-5^4-methyl-8,11,14-trioxo-9-phenethyl-4-oxa-7,10-diaza-1(3,1)-pyrrolidina-5(1,3)-benzenacyclotetradecaphane-12-yl)carbamate] has an IC50 [1] of less than 100 nM, an IC50 [2] of less than 100 nM and an IC50 [3] of less than 100 nM. It also gave an IC50 [4] of less than 100 nM.

For `Cc1ccc2cc1CNC(=O)[C@H](CCc1ccccc1)NC(=O)[C@@H](NC(=O)Cc1nc(-c3ccccc3)n[nH]1)CC(=O)N1CCCC(CCO2)C1` (stereo partly drawn) [Compound 328, N-((9S,12S)-5^4-methyl-8,11,14-trioxo-9-phenethyl-4-oxa-7,10-diaza-1(3,1)-piperidina-5(1,3)-benzenacyclotetradecaphane-12-yl)-2-(3-phenyl-1H-1,2,4-triazol-5-yl)acetamide], the IC50 [1] was less than 100 nM, the IC50 [2] was less than 100 nM and the IC50 [3] was less than 100 nM. For the same compound, the IC50 [4] was 100 to 500 nM.

Compound `Cc1ccc2cc1CNC(=O)[C@H](CCc1ccccc1)NC(=O)[C@@H](NC(=O)Cc1cn3ccsc3n1)CC(=O)N1CCCC(CCO2)C1` (stereo partly drawn) [Compound 330, 2-(imidazo[2,1-b]thiazol-6-yl)-N-((9S,12S)-5^4-methyl-8,11,14-trioxo-9-phenethyl-4-oxa-7,10-diaza-1(3,1)-piperidina-5(1,3)-benzenacyclotetradecaphane-12-yl)acetamide] has an IC50 [1] of less than 100 nM, an IC50 [2] of less than 100 nM and an IC50 [3] of less than 100 nM. It also gave an IC50 [4] of less than 100 nM.

In the case of `Cc1ccc2cc1CNC(=O)[C@H](CCc1ccccc1)NC(=O)[C@@H](NC(=O)Cc1ccccn1)CC(=O)N1CCCC(CCO2)C1` (stereo partly drawn) [Compound 331, N-((9S,12S)-5^4-methyl-8,11,14-trioxo-9-phenethyl-4-oxa-7,10-diaza-1(3,1)-piperidina-5(1,3)-benzenacyclotetradecaphane-12-yl)-2-(pyridin-2-yl)acetamide], the IC50 [1] is reported as less than 100 nM, the IC50 [2] is reported as less than 100 nM and the IC50 [3] is reported as less than 100 nM. The IC50 [4] was less than 100 nM.

In the case of `Cc1ccc2cc1CNC(=O)[C@H](CCc1ccccc1)NC(=O)[C@@H](NC(=O)C(C)c1ccc3ncccc3c1)CC(=O)N1CCCC(CCO2)C1` (stereo partly drawn) [Compound 369, N-((9S,12S)-5^4-methyl-8,11,14-trioxo-9-phenethyl-4-oxa-7,10-diaza-1(3,1)-piperidina-5(1,3)-benzenacyclotetradecaphane-12-yl)-2-(quinolin-6-yl)propanamide], the IC50 [1] is reported as less than 100 nM, the IC50 [2] is reported as less than 100 nM and the IC50 [3] is reported as less than 100 nM. The IC50 [4] was less than 100 nM.
